Data reported in patent US9187469B2, “Morpholinylbenzotriazines for use in cancer therapy” (Merck Patent GmbH, priority 2011, dated 2015).
Read-outs that look alike come from different tables or passages of the source.

Columns and labels:
DNA-PK [1] = target: T1, DNA-PK (Homo sapiens (Human), UniProt P78527); test: DNA-PK biochemical assay (FlashPlate kinase assay, Example 4); conditions: 5 μM ATP
Experimental: The kinase assay was carried out in streptavidin-coated […] microtitre FlashPlates®. To this end, 1.5 μg of the DNA-PK/protein complex and 100 ng of biotinylated substrate, such as, for example, PESQEAFADLWKK biotin-NH2 (“biotin-DNA-PK peptide”), in a total volume of 36.5 μl (34.25 mM HEPES/KOH, 7.85 mM Tris-HCl, 68.5 mM KCl, 5 μM ATP, 6.85 mM MgCl2, 0.5 mM EDTA, 0.14 mM EGTA, 0.69 mM DTT, pH 7.4), were incubated at room temperature for 90 min with 500 ng of DNA from calf thymus, 0.1 μCi of 33P-ATP and 1.8% of DMSO per well with or without the test compound. The reaction was stopped using 50 μl/well of 200 mM EDTA. After incubation for a further 30 min at room temperature, the liquid was removed. Each well was washed three times with 100 μl of 0.9% sodium chloride solution. A non-specific reaction (blank value) was determined using 10 μM of a proprietary kinase inhibitor. The radioactivity measurement was carried out by means of a TopCount. IC50 values were calculated in RS1 (Kashishian et al. (2003) Molecular Cancer Therapeutics 1257) and are compiled in Table 1.

DNA-PK [2] = target: T1, DNA-PK; conditions: Hardcastle et al. (2005); cited from earlier work
HCT116 cells = test: Cellular colony growth test with X-ray irradiation (Example 6); assay type: cell-based; conditions: Homo sapiens, HCT-116; HCT116, at 4.8 Gray
Experimental: The colorectal carcinoma cell line HCT116 was cultivated in MEM alpha medium with 10% of foetal calf serum, 1 mM sodium pyruvate and 2 mM glutamine at 37° C. and 10% CO2. The cells were detached from the base of the culture vessels with the aid of trypsine/EDTA, centrifuged off in centrifuge tubes and taken up in fresh medium. The cell density was subsequently determined. 300 cells were sown out in 6-well cell culture plates in 2 ml of culture medium and cultivated overnight. Next day, the cells were treated with test substances for one hour before the cell culture plates were treated with defined doses of X-rays (in general 0, 2.4, 4.8, 12 Gray; irradiation instrument: Faxitron RX-650; Faxitron X-Ray LLC, USA). In order to determine the dose/effect relationships, the cells were treated with various concentrations of a test substance. After irradiation, the cells are cultivated for a further 24 hours in the presence of the test substance, the culture medium was then replaced with culture medium without test substance, and the cells were cultivated for a further 6-8 days. The cell colonies formed were subsequently stained with the aid of Crystal Violet and counted in a colony counter (Gelcount, Oxford Optronics, UK). Dose/effect curves, in particular IC50 values, were determined using a curve adaptation function for nonlinear dose/effect relationships.

mammal cells = conditions: Rosenzweig et al. (1999); cited from earlier work
[3] = system: kinases of the PI3K isoenzyme family; conditions: cited from earlier work
[4] = cited from earlier work
[5] = system: DNA-PK phosphorylation at serine 2056 in HCT116 cells; test: Cellular DNA-PK phosphorylation at serine 2056 (Example 5); assay type: cell-based; conditions: 10 μM bleomycin, six hours
Experimental: HCT116 cells were cultivated in MEM alpha medium with 10% of foetal calf serum, 1 mM sodium pyruvate and 2 mM glutamine at 37° C. and 10% CO2. The cells were detached from the base of the culture vessels with the aid of trypsine/EDTA, centrifuged off in centrifuge tubes and taken up in fresh medium. The cell density was subsequently determined. 200,000 cells were sown per cavity of a 12-well cell culture plate in 1 ml of culture medium and cultivated overnight. Next day, 10 μM bleomycin and test substances in fresh culture medium was added to the cells and these were cultivated for a further six hours. Cell lysis was subsequently carried out. The cell lysates were investigated by SDS polyacrylamide gel electrophoresis by means of DNA-PK-specific antibodies (Abcam ab13852: total DNA-PK; ab18192: phosphoserine 2056 DNA-PK) and Western Blotting. The enzymatic reaction was developed with the aid of a chemiluminescence reagent. The chemiluminescence was recorded with the aid of a documentation system (VersaDoc™, Bio-Rad, USA) and evaluated densitometrically with the aid of instrument-specific software (Quantity One). The signals with phospho-DNA-PK-specific antibodies were standardised to the signal with the antibody against the total protein DNA-PK. IC50 values and percentage inhibition data were determined by referencing to the signal level of the bleomycin-treated vehicle control group.

IC50 (DNA-PK [1]; read-out: Bonding DNA-PK IC50) | Structure (SMILES) | other results
< 100 nM | Cc1csc([C@H](O)[C@@H]2CCCN(c3nnnc4cc(N5CCOCC5)ccc34)C2)n1 [compound 7, (R)-(4-Methyl-thiazol-2-yl)-[(R)-1-(7-morpholin-4-ylbenzo[d]-1,2,3-triazin-4-yl)-piperidin-3-yl]-methanol] | –
– | O=c1cc(N2CCOCC2)oc2c(-c3cccc4c3sc3ccccc34)cccc12 [NU-7441] | IC50 (DNA-PK [2]): 20 nM
< 100 nM | Cc1cnc([C@H](O)[C@H]2CCCN(c3nnnc4cc(N5CCOCC5)ccc34)C2)s1 [compound 13, (R)-(5-Methyl-thiazol-2-yl)-[(S)-1-(7-morpholin-4-ylbenzo[d]-1,2,3-triazin-4-yl)-piperidin-3-yl]-methanol] | –
< 100 nM | C[C@@](O)(c1nccs1)[C@H]1CCCN(c2nnnc3cc(N4CCOCC4)ccc23)C1 [compound 9, (S)-1-[(S)-1-(7-Morpholin-4-yl-benzo[d]-1,2,3-triazin-4-yl)-piperidin-3-yl]-1-thiazol-2-yl-ethanol] | –
< 100 nM | COc1ccc([C@@H](O)[C@H]2CCCN(c3nnnc4cc(N5CCOCC5)ccc34)C2)cn1 [compound 16, (S)-(6-Methoxy-pyridin-3-yl)-[(S)-1-(7-morpholin-4-ylbenzo[d]-1,2,3-triazin-4-yl)-piperidin-3-yl]-methanol] | –
< 100 nM | COc1ccc([C@H](O)[C@H]2CCCN(c3nnnc4cc(N5CCOCC5)ccc34)C2)cn1 [compound 17, (R)-(6-Methoxy-pyridin-3-yl)-[(S)-1-(7-morpholin-4-ylbenzo[d]-1,2,3-triazin-4-yl)-piperidin-3-yl]-methanol] | –
< 100 nM | COc1ccc([C@H](O)[C@H]2CCCN(c3nnnc4cc(N5CCOCC5)ccc34)C2)nn1 [compound 15, (R)-(6-Methoxy-pyridazin-3-yl)-[(S)-1-(7-morpholin-4-yl-benzo[d]-1,2,3-triazin-4-yl)-piperidin-3-yl]-methanol] | –
< 100 nM | Cc1csc([C@@H](O)[C@@H]2CCCN(c3nnnc4cc(N5CCOCC5)ccc34)C2)n1 [compound 6, (S)-(4-Methyl-thiazol-2-yl)-[(R)-1-(7-morpholin-4-ylbenzo[d]-1,2,3-triazin-4-yl)-piperidin-3-yl]-methanol] | –
< 100 nM | O[C@H](c1nccs1)[C@@H]1CCCN(c2nnnc3cc(N4CCOCC4)ccc23)C1 [compound 2, (S)-[(R)-1-(7-Morpholin-4-yl-benzo[d]-1,2,3-triazin-4-yl)-piperidin-3-yl]-thiazol-2-yl-methanol] | –
< 100 nM | Cc1cnc([C@@H](O)[C@H]2CCCN(c3nnnc4cc(N5CCOCC5)ccc34)C2)s1 [No. 12, (S)-(5-Methyl-thiazol-2-yl)-[(S)-1-(7-morpholin-4-ylbenzo[d]-1,2,3-triazin-4-yl)-piperidin-3-yl]-methanol] | IC50 (HCT116 cells): < 400 nM
< 100 nM | Cc1nc([C@H](O)[C@@H]2CCCN(c3nnnc4cc(N5CCOCC5)ccc34)C2)sc1C [compound 10, (R)-(4,5-Dimethyl-thiazol-2-yl)-[(R)-1-(7-morpholin-4-ylbenzo[d]-1,2,3-triazin-4-yl)-piperidin-3-yl]-methanol] | –
< 100 nM | CC(C)n1cc([C@@H](O)[C@H]2CCCN(c3nnnc4cc(N5CCOCC5)ccc34)C2)cn1 [compound 18, (S)-(1-Isopropyl-1H-pyrazol-4-yl)-[(S)-1-(7-morpholin-4-yl-benzo[d]-1,2,3-triazin-4-yl)-piperidin-3-yl]-methanol] | –
– | O=c1cc(N2CCOCC2)oc2c(-c3ccccc3)cccc12 [LY294002] | increase in sensitivity to ionising irradiation in cellular terms (mammal cells): weak increase
< 100 nM | COc1ccc([C@@H](O)[C@H]2CCCN(c3nnnc4cc(N5CCOCC5)ccc34)C2)nn1 [compound 14, (S)-(6-Methoxy-pyridazin-3-yl)-[(S)-1-(7-morpholin-4-yl-benzo[d]-1,2,3-triazin-4-yl)-piperidin-3-yl]-methanol] | –
< 100 nM | Cc1csc([C@H](O)[C@H]2CCCN(c3nnnc4cc(N5CCOCC5)ccc34)C2)n1 [compound 5, (R)-(4-Methyl-thiazol-2-yl)-[(S)-1-(7-morpholin-4-ylbenzo[d]-1,2,3-triazin-4-yl)-piperidin-3-yl]-methanol] | –
< 100 nM | CC(C)(C)n1cc([C@@H](O)[C@H]2CCCN(c3nnnc4cc(N5CCOCC5)ccc34)C2)cn1 [compound 19, (S)-(1-tert-Butyl-1H-pyrazol-4-yl)-[(S)-1-(7-morpholin-4-yl-benzo[d]-1,2,3-triazin-4-yl)-piperidin-3-yl]-methanol] | –
< 100 nM | Cc1nc([C@@H](O)[C@H]2CCCN(c3nnnc4cc(N5CCOCC5)ccc34)C2)sc1C [compound 11, (S)-(4,5-Dimethyl-thiazol-2-yl)-[(S)-1-(7-morpholin-4-ylbenzo[d]-1,2,3-triazin-4-yl)-piperidin-3-yl]-methanol] | –
< 100 nM | C[C@](O)(c1nccs1)[C@H]1CCCN(c2nnnc3cc(N4CCOCC4)ccc23)C1 [compound 8, (R)-1-[(S)-1-(7-Morpholin-4-yl-benzo[d]-1,2,3-triazin-4-yl)-piperidin-3-yl]-1-thiazol-2-yl-ethanol] | –
– | CCN1CCN(CC(=O)Nc2ccc(-c3cccc4c(=O)cc(N5CCOCC5)oc34)c3sc4ccccc4c23)CC1 [KU-0060648] | inhibition of kinases of the PI3K isoenzyme family [3]: potently inhibited; solubility profile in aqueous medium [4]: improved solubility profile
– | O[C@H](c1nccs1)[C@H]1CCCN(c2nnnc3cc(N4CCOCC4)ccc23)C1 [(S)-[(S)-1-(7-morpholin-4-ylbenzo[d]-1,2,3-triazin-4-yl)piperidin-3-yl]thiazol-2-ylmethanol] | IC50 (DNA-PK [1]; read-out: biochemical activity (assay from Example 4)): 1 nM; cellular activity (assay from Example 5) [5]: sub-micromolar
< 100 nM | O[C@@H](c1nccs1)[C@H]1CCCN(c2nnnc3cc(N4CCOCC4)ccc23)C1 [compound 1, (R)-[(S)-1-(7-Morpholin-4-yl-benzo[d]-1,2,3-triazin-4-yl)-piperidin-3-yl]-thiazol-2-yl-methanol] | –
< 100 nM | CCn1cc([C@@H](O)[C@H]2CCCN(c3nnnc4cc(N5CCOCC5)ccc34)C2)cn1 [compound 20, (S)-(1-Ethyl-1H-pyrazol-4-yl)-[(S)-1-(7-morpholin-4-ylbenzo[d]-1,2,3-triazin-4-yl)-piperidin-3-yl]-methanol] | –
< 100 nM | O[C@@H](c1nccs1)[C@@H]1CCCN(c2nnnc3cc(N4CCOCC4)ccc23)C1 [compound 3, (R)-[(R)-1-(7-Morpholin-4-yl-benzo[d]-1,2,3-triazin-4-yl)-piperidin-3-yl]-thiazol-2-yl-methanol] | –
< 100 nM | Cc1csc([C@@H](O)[C@H]2CCCN(c3nnnc4cc(N5CCOCC5)ccc34)C2)n1 [compound 4, (S)-(4-Methyl-thiazol-2-yl)-[(S)-1-(7-morpholin-4-ylbenzo[d]-1,2,3-triazin-4-yl)-piperidin-3-yl]-methanol] | –
